These are literature values, as cited in US9862652B2, “Microencapsulated nitrification inhibitor composition” (DOW AGROSCIENCES LLC, priority 2014, dated 2018).

Turning to `Clc1cccc(C(Cl)(Cl)Cl)n1` [nitrapyrin, 2-chloro-6-(trichloromethyl)pyridine], the “nitrapyrin dissolved by Hallcomid M-8-10” value (ambient temperature) is given as “about 50 weight percent”. In addition, under “ambient temperature (24° C.)”, the “nitrapyrin dissolved by Aromatic 100” value is reported as “about 51 weight percent” and the “nitrapyrin dissolved by cyclohexanone” value is given as “about 60 wt %”. The “nitrapyrin dissolved by Aromatic 150” value (−10° C.) is “about 29 weight percent”.
